In patent US7169931B2, “Cyclic compounds exhibiting thrombopoietin receptor agonism” (Shionogi & Co., Ltd., priority 2001, dated 2007) one finds EC50 data, which are given here for 3 molecules.

For orientation: pEC50 means the EC50 on a negative log10 scale, so that one unit is a factor of ten.

pEC50: −log10 of the molar value.

This assay has as its target T1, human TPO receptor (Homo sapiens, UniProt P40238).
T1 construct: expressed in transfected cells; host or cells: BaF-B03 (murine IL-3 dependent cell line)
T1 sequence (P40238 26-635): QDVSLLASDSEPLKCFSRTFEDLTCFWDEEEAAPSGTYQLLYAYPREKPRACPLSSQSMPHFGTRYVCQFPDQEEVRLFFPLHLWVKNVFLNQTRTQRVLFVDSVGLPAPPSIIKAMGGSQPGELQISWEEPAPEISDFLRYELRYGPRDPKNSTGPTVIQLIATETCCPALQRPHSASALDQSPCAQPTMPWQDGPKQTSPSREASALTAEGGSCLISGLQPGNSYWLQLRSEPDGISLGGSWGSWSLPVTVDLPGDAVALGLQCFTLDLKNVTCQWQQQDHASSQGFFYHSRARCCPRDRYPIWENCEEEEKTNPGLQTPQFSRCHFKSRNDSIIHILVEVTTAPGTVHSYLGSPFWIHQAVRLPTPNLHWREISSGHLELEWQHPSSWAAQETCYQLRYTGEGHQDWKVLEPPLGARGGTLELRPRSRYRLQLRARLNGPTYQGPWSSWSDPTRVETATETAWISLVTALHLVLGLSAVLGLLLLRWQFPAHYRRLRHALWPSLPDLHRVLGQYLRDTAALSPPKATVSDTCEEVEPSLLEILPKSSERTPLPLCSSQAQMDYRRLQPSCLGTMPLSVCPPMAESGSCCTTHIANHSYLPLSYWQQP
As to the kind of experiment: Thrombopoietic activity: proliferation of TPO dependent BaF/hTPOR cells (WST-1). The format is cell-based. The following applies: BaF/hTPOR cell line (BaF-B03 with human TPO receptor), without IL-3; 20 hours incubation + 4 hours WST-1, absorbance 450 nm; ED50 = half concentration of the concentration showing maximum thrombopoietic activity. The procedure: BAF/hTPOR cells were maintained in RPMI medium and WEHI-3B conditioned medium as a source of murine interleukin-3 (IL-3). These cells were washed and resuspended in RPMI medium without a source of murine IL-3 and seeded into each well of 96-well microtiter plates at a density of 5×10^4 cells per well in the absence or presence of various concentration of hTPO or the present compound. After incubation at 37° C. for 20 hours in the 5% CO2 incubator, 10% WST-1 reagent (Takara Biomedicals, Japan) was added to each wells and the cells were further incubated for 4 hours. The absorbance at 450 nm was measured.
(Tetrazolium dyes change colour on reduction, which living cells bring about.)
For the molecule `O=C(O)C1=Cc2ccc(C(=O)Nc3nc(-c4cccc(C(F)(F)F)c4F)cs3)cc2CC1` [Compound D-7], the pEC50 was 7.35.
In the case of `COC(=O)c1cc2ccc(C(=O)Nc3nc(-c4cccc(C(F)(F)F)c4F)cs3)cc2oc1=O` [Compound D-8], the negative logarithm of the EC50 (pEC50) was 5.71.
Consider `O=C(O)c1ccc2sc(C(=O)Nc3nc(-c4ccc(Cl)c(Cl)c4)cs3)cc2c1` [Compound E-1], for which the pEC50 is 4.78.
